# Measured values published in PubChem BioAssay (NCI).
#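 Test compounds were applied to cells in 96-well plates for 48 hours at 5 doses. TGI: concentration producing complete growth inhibition.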
# Assays:
# Assay in all cases: NCI anticancer screen, dose series, 48 h
# NCI-H226 lung = test system: NCI-H226 lung
# MDA-N = test system: MDA-N
# SK-MEL-5 melanoma = test system: SK-MEL-5 melanoma
# OVCAR-5 ovarian = test system: OVCAR-5 ovarian
# HL-60(TB) leukemia = test system: HL-60(TB) leukemia
# MALME-3M melanoma = test system: MALME-3M melanoma
# NCI/ADR-RES ovarian = test system: NCI/ADR-RES ovarian
# KM12 colon = test system: KM12 colon
# HS 578T breast = test system: HS 578T breast
# SNB-19 CNS = test system: SNB-19 CNS
# LOX IMVI melanoma = test system: LOX IMVI melanoma
# UO-31 renal = test system: UO-31 renal
# MCF7 breast = test system: MCF7 breast
# MDA-MB-231 breast = test system: MDA-MB-231 breast
# CCRF-CEM leukemia = test system: CCRF-CEM leukemia
# HOP-62 NSCLC = test system: HOP-62 NSCLC
# HOP-92 NSCLC = test system: HOP-92 NSCLC
# SF-295 CNS = test system: SF-295 CNS
# SF-539 CNS = test system: SF-539 CNS
# HCT-15 colon = test system: HCT-15 colon
# MOLT-4 leukemia = test system: MOLT-4 leukemia
# TK-10 renal = test system: TK-10 renal
# HCC-2998 colon = test system: HCC-2998 colon
# A549 NSCLC = test system: A549 NSCLC
# UACC-62 melanoma = test system: UACC-62 melanoma
# 786-0 renal = test system: 786-0 renal
# SK-MEL-2 melanoma = test system: SK-MEL-2 melanoma
# NCI-H23 lung = test system: NCI-H23 lung
# SR leukemia = test system: SR leukemia
# OVCAR-4 ovarian = test system: OVCAR-4 ovarian
# NCI-H522 lung = test system: NCI-H522 lung
# OVCAR-3 ovarian = test system: OVCAR-3 ovarian
# PC-3 prostate = test system: PC-3 prostate
# SN12C renal = test system: SN12C renal
# HCT-116 colon = test system: HCT-116 colon
# RPMI-8226 leukemia = test system: RPMI-8226 leukemia
# OVCAR-8 ovarian = test system: OVCAR-8 ovarian
# MDA-MB-435 = test system: MDA-MB-435
# U251 CNS = test system: U251 CNS
# EKVX NSCLC = test system: EKVX NSCLC
# UACC-257 melanoma = test system: UACC-257 melanoma
# ACHN renal = test system: ACHN renal
# IGROV1 ovarian = test system: IGROV1 ovarian
# SNB-75 CNS = test system: SNB-75 CNS
# T-47D breast = test system: T-47D breast
# COLO 205 colon = test system: COLO 205 colon
# DU-145 prostate = test system: DU-145 prostate
# SF-268 CNS = test system: SF-268 CNS
# CAKI-1 renal = test system: CAKI-1 renal
# SK-OV-3 ovarian = test system: SK-OV-3 ovarian
# SW-620 colon = test system: SW-620 colon
# BT-549 breast = test system: BT-549 breast
# K-562 leukemia = test system: K-562 leukemia
# M14 melanoma = test system: M14 melanoma
# HT29 colon = test system: HT29 colon
# NCI-H460 lung = test system: NCI-H460 lung
# SK-MEL-28 melanoma = test system: SK-MEL-28 melanoma
structure (smiles),measurement,setting,value
CCCCCC(=O)OCC(=O)[C@H]1[C@H](C)C[C@H]2[C@@H]3C[C@H](F)C4=C/C(=N/OC(=O)c5cccc6c(=O)c7ccccc7[nH]c56)C=C[C@]4(C)[C@H]3[C@@H](O)C[C@@]21C,TGI,NCI-H226 lung,> 100 µM
same,TGI,MDA-N,76.8 µM
same,TGI,SK-MEL-5 melanoma,27.8 µM
same,TGI,OVCAR-5 ovarian,> 100 µM
same,TGI,HL-60(TB) leukemia,> 100 µM
same,TGI,MALME-3M melanoma,33.2 µM
same,TGI,NCI/ADR-RES ovarian,41.1 µM
same,TGI,KM12 colon,27.3 µM
same,TGI,HS 578T breast,> 100 µM
same,TGI,SNB-19 CNS,> 100 µM
same,TGI,LOX IMVI melanoma,35.7 µM
same,TGI,UO-31 renal,50 µM
same,TGI,MCF7 breast,54.9 µM
same,TGI,MDA-MB-231 breast,> 100 µM
same,TGI,CCRF-CEM leukemia,> 100 µM
same,TGI,HOP-62 NSCLC,> 100 µM
same,TGI,HOP-92 NSCLC,> 100 µM
same,TGI,SF-295 CNS,> 100 µM
same,TGI,SF-539 CNS,> 100 µM
same,TGI,HCT-15 colon,> 100 µM
same,TGI,MOLT-4 leukemia,> 100 µM
same,TGI,TK-10 renal,> 100 µM
same,TGI,HCC-2998 colon,82.4 µM
same,TGI,A549 NSCLC,> 100 µM
same,TGI,UACC-62 melanoma,32 µM
same,TGI,786-0 renal,> 100 µM
same,TGI,SK-MEL-2 melanoma,76.8 µM
same,TGI,NCI-H23 lung,> 100 µM
same,TGI,SR leukemia,93.3 µM
same,TGI,OVCAR-4 ovarian,> 100 µM
same,TGI,NCI-H522 lung,46 µM
same,TGI,OVCAR-3 ovarian,65.5 µM
same,TGI,PC-3 prostate,53.8 µM
same,TGI,SN12C renal,> 100 µM
same,TGI,HCT-116 colon,85.3 µM
same,TGI,RPMI-8226 leukemia,14.9 µM
same,TGI,OVCAR-8 ovarian,65.9 µM
same,TGI,MDA-MB-435,55.3 µM
same,TGI,U251 CNS,> 100 µM
same,TGI,EKVX NSCLC,> 100 µM
same,TGI,UACC-257 melanoma,62 µM
same,TGI,ACHN renal,> 100 µM
same,TGI,IGROV1 ovarian,> 100 µM
same,TGI,SNB-75 CNS,69 µM
same,TGI,T-47D breast,62.1 µM
same,TGI,COLO 205 colon,72.8 µM
same,TGI,DU-145 prostate,> 100 µM
same,TGI,SF-268 CNS,> 100 µM
same,TGI,CAKI-1 renal,> 100 µM
same,TGI,SK-OV-3 ovarian,> 100 µM
same,TGI,SW-620 colon,> 100 µM
same,TGI,BT-549 breast,66.5 µM
same,TGI,K-562 leukemia,> 100 µM
same,TGI,M14 melanoma,77.9 µM
same,TGI,HT29 colon,57.8 µM
CN1CC2=C(NC(=S)NC2c2ccc(Cl)cc2)/C(=C/c2ccc(Cl)cc2)C1 (stereo not drawn),TGI,MDA-N,34.9 µM
same,TGI,SK-MEL-5 melanoma,26.8 µM
same,TGI,OVCAR-5 ovarian,31.4 µM
same,TGI,HL-60(TB) leukemia,48 µM
same,TGI,MALME-3M melanoma,36.8 µM
same,TGI,NCI/ADR-RES ovarian,43.6 µM
same,TGI,KM12 colon,38.2 µM
same,TGI,HS 578T breast,40.3 µM
same,TGI,LOX IMVI melanoma,35.8 µM
same,TGI,UO-31 renal,> 100 µM
same,TGI,MCF7 breast,68.4 µM
same,TGI,MDA-MB-231 breast,39.8 µM
same,TGI,CCRF-CEM leukemia,30.9 µM
same,TGI,HOP-62 NSCLC,36.4 µM
same,TGI,SF-295 CNS,33.8 µM
same,TGI,SF-539 CNS,62.9 µM
same,TGI,HCT-15 colon,37.5 µM
same,TGI,MOLT-4 leukemia,30.2 µM
same,TGI,TK-10 renal,> 100 µM
same,TGI,HCC-2998 colon,34 µM
same,TGI,A549 NSCLC,45.1 µM
same,TGI,UACC-62 melanoma,33.8 µM
same,TGI,786-0 renal,52.3 µM
same,TGI,SK-MEL-2 melanoma,30.2 µM
same,TGI,NCI-H23 lung,43.8 µM
same,TGI,SR leukemia,51.5 µM
same,TGI,NCI-H522 lung,31 µM
same,TGI,OVCAR-3 ovarian,29.3 µM
same,TGI,PC-3 prostate,23.1 µM
same,TGI,SN12C renal,36.4 µM
same,TGI,HCT-116 colon,29.2 µM
same,TGI,RPMI-8226 leukemia,92.4 µM
same,TGI,OVCAR-8 ovarian,37.8 µM
same,TGI,NCI-H460 lung,28.1 µM
same,TGI,MDA-MB-435,30.1 µM
same,TGI,U251 CNS,33.3 µM
same,TGI,EKVX NSCLC,68.8 µM
same,TGI,UACC-257 melanoma,43.2 µM
same,TGI,ACHN renal,57.9 µM
same,TGI,IGROV1 ovarian,32.6 µM
same,TGI,SNB-75 CNS,31.2 µM
same,TGI,SK-MEL-28 melanoma,33.9 µM
same,TGI,T-47D breast,32.3 µM
same,TGI,COLO 205 colon,33.3 µM
same,TGI,DU-145 prostate,30.5 µM
same,TGI,SF-268 CNS,50.4 µM
same,TGI,CAKI-1 renal,32.4 µM
same,TGI,SK-OV-3 ovarian,31.4 µM
same,TGI,SW-620 colon,30.3 µM
same,TGI,BT-549 breast,48.6 µM
same,TGI,K-562 leukemia,32.7 µM
same,TGI,M14 melanoma,33.6 µM
same,TGI,HT29 colon,34 µM
